Experimental findings from patent publication US5972898A, “3',3-N-bis-substituted macrolide LHRH antagonists” (Abbott Laboratories, priority 1998, dated 1999) are described below.

What is called Kb is the affinity of an antagonist, worked out from how it opposes an agonist. As usually defined, the pA2 is the negative logarithm of the molar antagonist concentration that doubles the agonist concentration needed for the same response.

Assay [1] has as its target T1, LHRH rat pituitary receptor (Rattus norvegicus, UniProt P30969).
T1 construct: from tissue; host or cells: rat pituitary
T1 sequence (P30969 1-327): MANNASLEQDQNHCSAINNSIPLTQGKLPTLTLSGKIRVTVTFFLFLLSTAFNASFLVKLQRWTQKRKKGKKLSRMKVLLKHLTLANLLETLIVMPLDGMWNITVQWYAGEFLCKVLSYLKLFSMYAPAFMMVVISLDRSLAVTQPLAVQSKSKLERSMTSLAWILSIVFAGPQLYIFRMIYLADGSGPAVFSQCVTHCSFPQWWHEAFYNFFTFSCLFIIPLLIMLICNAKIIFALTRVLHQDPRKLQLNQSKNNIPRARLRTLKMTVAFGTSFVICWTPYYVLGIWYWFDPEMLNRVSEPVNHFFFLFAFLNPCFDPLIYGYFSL
The experiment in a line: LHRH rat pituitary receptor binding (pKI). The note with it: in vitro; for Ki: read-out: pKI (receptor binding affinity) (converted). The method, then: Representative compounds of the present invention were evaluated in in vitro tests for LHRH rat pituitary receptor binding (pKI) and for LH inhibition from rat pituitary cells for antagonist potency (pA2). […] The receptor binding affinity (pKI) is the negative equilibrium dissociation constants.

In the next assay the target is T2, rat pituitary cells (Rattus norvegicus, UniProt P30969).
T2 construct: endogenous in cells; host or cells: rat pituitary cells
T2 sequence (P30969 1-327): T1 sequence (P30969 1-327)
As to the kind of experiment: LH inhibition from rat pituitary cells for antagonist potency (pA2). In kind it is cell-based. To be noted: negative log of antagonist concentration shifting the leuprolide response curve to two-fold higher concentration. How it is done:
Representative compounds of the present invention were evaluated in in vitro tests for LHRH rat pituitary receptor binding (pKI) and for LH inhibition from rat pituitary cells for antagonist potency (pA2). The tests employed the methods detailed in F. Haviv, et al. J. Med. Chem., 2340-2344 (1989). The receptor binding affinity (pKI) is the negative equilibrium dissociation constants.
The pA2 value is the negative logarithm of the concentration of antagonist which shifts the response curve produced by the agonist leuprolide to two-fold higher concentration. Leuprolide is the LHRH agonist having the structure pyro-Glu^1 -His^2 -Trp^3 -Ser^4 -Tyr^5 -D-Leu^6 -Leu^7 -Arg^8 -Pro^9 -NHEt and is disclosed and claimed in U.S. Pat. No. 4,005,063. Typically pA2 values of 7.0 or greater are indicative of good LHRH antagonist potency.

Take `CC[C@H]1OC(=O)[C@H](C)[C@@H](O[C@H]2C[C@@](C)(OC)[C@@H](O)[C@H](C)O2)[C@H](C)[C@@H](O[C@@H]2O[C@H](C)C[C@H](N(C3CCC3)C3CCC3)[C@H]2O)[C@](C)(OC)C[C@@H](C)C(=O)[C@H](C)[C@H]2N(CCc3ccc(Cl)c(Cl)c3)C(=O)O[C@]12C` [Example 2]: the Ki in assay [1] is 3.16 nM. For the same molecule, on rat pituitary cells, the Kb is 5.37 nM.
For the molecule `CC[C@H]1OC(=O)[C@H](C)[C@@H](O[C@H]2C[C@@](C)(OC)[C@@H](O)[C@H](C)O2)[C@H](C)[C@@H](O[C@@H]2O[C@H](C)C[C@H](N(C3CCC3)C3CCC3)[C@H]2O)[C@](C)(OC)C[C@@H](C)C(=O)[C@H](C)[C@H]2N(CCc3ccc(Cl)cc3)C(=O)O[C@]12C` [Example 4, 3',3'-N-Bisdesmethyl-3',3'-N-biscyclobutyl-11-deoxy-11-[carboxy-(4-chlorophenethylamino)]-6-O-methyl-erythromycin A 11,12-(cyclic carbamate)], the Ki in assay [1] was 2.4 nM. Also, the Kb on rat pituitary cells was 0.126 nM.
“3',3'-N-Bisdesmethyl-3',3'-N-biscyclobutyl-11-deoxy-11-[carboxy-(3,4-difluorophenethylamino)]-6-O-methyl-erythromycin A 11,12-(cyclic carbamate) [Example 18]”: the “pKI (receptor binding affinity)” value in assay [1] stood at 9.40. Besides, the pA2 on rat pituitary cells was found to be 8.34.
In the case of `CC[C@H]1OC(=O)[C@H](C)[C@@H](O[C@H]2C[C@@](C)(OC)[C@@H](O)[C@H](C)O2)[C@H](C)[C@@H](O[C@@H]2O[C@H](C)C[C@H](N(CC3CC3)CC3CC3)[C@H]2O)[C@](C)(OC)C[C@@H](C)C(=O)[C@H](C)[C@H]2N(CCc3ccc(F)c(F)c3)C(=O)O[C@]12C` [Example 17, 3',3'-N-Bisdesmethyl-3',3'-N-biscyclopropylmethyl-11-deoxy-11-[carboxy-(3,4-difluorophenethylamino)]-6-O-methyl-erytromycin A 11,12-(cyclic carbamate)], the Ki in assay [1] was 3.16 nM. Besides, the Kb at rat pituitary cells was 1.55 nM.
Regarding `CC[C@H]1OC(=O)[C@H](C)[C@@H](O[C@H]2C[C@@](C)(OC)[C@@H](O)[C@H](C)O2)[C@H](C)[C@@H](O[C@@H]2O[C@H](C)C[C@H](N(C(C)C)C3CCC3)[C@H]2O)[C@](C)(OC)C[C@@H](C)C(=O)[C@H](C)[C@H]2N(CCc3ccc(Cl)cc3)C(=O)O[C@]12C` [Example 5, 3',3'-N-Bisdesmethyl-3'-N-cyclobutyl-3'-N-isopropyl-11-deoxy-11-[carboxy-(4-chlorophenethylamino)]-6-O-methyl-erythromycin A 11,12-(cyclic carbamate)], the Ki in assay [1] was 0.832 nM. In addition, on rat pituitary cells, the Kb was 0.832 nM.
`CC[C@H]1OC(=O)[C@H](C)[C@@H](O[C@H]2C[C@@](C)(OC)[C@@H](O)[C@H](C)O2)[C@H](C)[C@@H](O[C@@H]2O[C@H](C)C[C@H](N(CC3CC3)CC3CC3)[C@H]2O)[C@](C)(OC)C[C@@H](C)C(=O)[C@H](C)[C@H]2N(CCc3ccc(Cl)c(F)c3)C(=O)O[C@]12C` [Example 13, 3',3'-N-Bisdesmethyl-3',3'-N-biscyclopropylmethyl-11-deoxy-11-[carboxy-(4-chloro-3-fluorophenethylamino)]-6-O-methyl-erythromycin A 11,12-(cyclic carbamate)]: the Ki in assay [1] is 1.15 nM. The Kb at rat pituitary cells is 0.295 nM.
As for `CC[C@H]1OC(=O)[C@H](C)[C@@H](O[C@H]2C[C@@](C)(OC)[C@@H](O)[C@H](C)O2)[C@H](C)[C@@H](O[C@@H]2O[C@H](C)C[C@H](N(C3CCC3)C3CCC3)[C@H]2O)[C@](C)(OC)C[C@@H](C)C(=O)[C@H](C)[C@H]2N(CCc3ccc(F)c(Cl)c3)C(=O)O[C@]12C` [Example 14, 3',3'-N-Bisdesmethyl-3',3'-N-biscyclobutyl-11-deoxy-11-[carboxy-(3-chloro-4-fluorophenethylamino)]-O-methyl-erythromycin A 11,12-(cyclic carbamate)], in assay [1], the Ki is 0.251 nM. At rat pituitary cells, the Kb is 0.759 nM.
